The results in this text go back to EP3388430A1, “COMPOUND, COMPOUND FOR USE IN THE TREATMENT OF A PATHOLOGICAL CONDITION, A PHARMACEUTICAL COMPOSITION AND A METHOD FOR PREPARING SAID COMPOUND” (Technische Universität München, priority 2017, dated 2018).

One assay deals with SF-268 cells. Briefly: SF-268 cell viability, resazurin-based assay. Particulars: Homo sapiens, SF-268, 72 h; three days of treatment; three biological and three technical replicates, Fig. 8; read-out: cellular potency (EC50), SF-268 cell viability. On the procedure:
The dependency of viability of SF-268 cells on EphA2 expression was validated by siRNA knockdown experiments. SF-268 cells were treated with four siRNAs targeting EphA2 expression independently and a mixture of the four siRNAs. Experiments were performed in three biological and three technical replicates. Cell death siRNA and scrambled siRNA were used as positive and negative controls. After six days of treatment, cellular viability was determined by a resazurin-based assay system measuring the reduction of resazurin as a function of metabolic activity.
Cellular potency was determined as EC50 value after three days of treatment using the above mentioned resazurin-based assay system in three biological and three technical replicates.

The target in a further assay is T1, EphA2 (Homo sapiens, UniProt P29317).
T1 construct: enrichment of ATP-pocket containing proteins (mainly kinases) from complex native cell lysates; endogenous in cells; host or cells: native cell lysate
T1 sequence (P29317 24-976): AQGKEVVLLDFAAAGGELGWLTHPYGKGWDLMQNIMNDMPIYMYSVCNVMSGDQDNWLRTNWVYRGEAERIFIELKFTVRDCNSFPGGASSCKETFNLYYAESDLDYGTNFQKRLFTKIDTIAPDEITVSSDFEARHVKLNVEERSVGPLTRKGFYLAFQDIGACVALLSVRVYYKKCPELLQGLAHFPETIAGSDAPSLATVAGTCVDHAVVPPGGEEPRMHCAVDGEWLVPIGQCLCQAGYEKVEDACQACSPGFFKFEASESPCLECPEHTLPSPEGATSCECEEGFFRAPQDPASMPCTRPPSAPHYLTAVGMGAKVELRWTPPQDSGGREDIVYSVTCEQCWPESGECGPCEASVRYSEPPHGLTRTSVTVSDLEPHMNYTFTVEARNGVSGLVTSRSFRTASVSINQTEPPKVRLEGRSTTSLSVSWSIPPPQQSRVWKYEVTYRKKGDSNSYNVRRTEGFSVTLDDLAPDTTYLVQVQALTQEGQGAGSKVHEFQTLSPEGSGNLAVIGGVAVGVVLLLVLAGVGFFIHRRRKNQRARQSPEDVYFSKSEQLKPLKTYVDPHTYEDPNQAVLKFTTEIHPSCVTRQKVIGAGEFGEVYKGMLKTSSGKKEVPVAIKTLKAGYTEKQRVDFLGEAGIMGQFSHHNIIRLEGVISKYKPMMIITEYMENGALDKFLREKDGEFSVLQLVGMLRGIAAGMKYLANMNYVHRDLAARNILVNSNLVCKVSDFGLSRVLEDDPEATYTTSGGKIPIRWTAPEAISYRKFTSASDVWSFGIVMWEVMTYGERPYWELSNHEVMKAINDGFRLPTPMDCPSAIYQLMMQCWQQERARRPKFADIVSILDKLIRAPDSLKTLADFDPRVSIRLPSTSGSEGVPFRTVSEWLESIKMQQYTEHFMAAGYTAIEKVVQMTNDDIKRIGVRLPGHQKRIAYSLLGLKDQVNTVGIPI
As to the kind of experiment: Chemical proteomic affinity matrix competition binding in cell lysate (Kd app, CATDS). Particulars: CATDS (EphA2) at the concentration corresponding to the Kd app for EphA2; compared with dasatinib. The text has this: Several of the compounds according to the invention were further evaluated by a chemical proteomic approach facilitating the identification and quantification of drug-protein interactions. This technology utilizes an affinity matrix comprising five immobilized broad spectrum kinase inhibitors for enrichment of ATP-pocket containing proteins (mainly kinases) from complex native cell lysates as described in Bantscheff et al, Nat Biotechnol., 2007, 25(9):1035-44 and Médard et al, L Proteome Res., 2015, 14(3):1574-86. Coupled to quantitative mass spectrometry readout, this chemical proteomic approach allows for the simultaneous identification and quantification of about 300 native human protein kinases. […]
The compounds according to the invention were tested in nine different concentrations (including a DMSO control) ranging from 3 nM to 30 µM. […] Compound selectivity was determined by calculation of a selectivity score named CATDS (concentration and target dependent selectivity). […] It is calculated by dividing the target binding of the target protein (in this case EphA2) by the sum of all target bindings (including the target protein of interest, in this case EphA2) at a particular concentration (in this case the concentration corresponding to the Kd^app value of a compound for EphA2). […]

In the case of `Cc1cccc(Cl)c1NC(=O)c1cnc(Nc2cc(N3CCOCC3)cc(N3CCOCC3)c2)s1` [Compound 40, N-(2-chloro-6-methylphenyl)-2-((3,5-dimorpholinophenyl)amino)thiazole-5-carboxamide], the EC50 in the assay with SF-268 cells came out at 94 nM. In addition, the “selectivity for EphA2 binding (CATDS)” value on EphA2 was “improved selectivity”. In the case of `Cc1cccc(Cl)c1NC(=O)c1cnc(Nc2cccc(C(=O)NC3CCNCC3(F)F)c2)s1` (stereo not shown) [Compound 28, N-(2-chloro-6-methylphenyl)-2-((3-((3,3-difluoropiperidin-4-yl)carbamoyl)phenyl)amino)thiazole-5-carboxamide], the “selectivity for EphA2 binding (CATDS)” value at EphA2 is on record as “improved selectivity”. As to `Cc1cccc(Cl)c1NC(=O)c1cnc(Nc2cc(N3CCOCC3)cc(S(C)(=O)=O)c2)s1` [Compound 41, N-(2-chloro-6-methylphenyl)-2-((3-(methylsulfonyl)-5-morpholinophenyl)amino)thiazole-5-carboxamide], the 50% effective concentration (EC50) with SF-268 cells is 504 nM.
